Source: PubChem BioAssay AID192 (DTP/NCI, 2004)
Where “and” joins values, the source holds several entries; their conditions need not be identical. Equal entries are not always repeated. Inconclusive results and toxic doses are left out.

Tested on: BDF1 mice, B16 melanoma ip, median survival T/C
Assay: NCI In Vivo Anticancer Drug Screen. Data for tumor model B16 Melanoma (intraperitoneal) in B6D2F1 (BDF1) mice
Conditions: endpoint: median survival time, higher = longer survival
In short: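 Mice with transplantable tumors; drug vs vehicle groups; endpoint survival or tumor size; value = T/C.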

[1] = dose: 6.25 mg/kg/injection, schedule: Q01DX009 (ip), vehicle: saline with Tween-80
[2] = dose: 12.5 mg/kg/injection, schedule: Q01DX009 (ip), vehicle: saline with Tween-80
[3] = dose: 25.0 mg/kg/injection, schedule: Q01DX009 (ip), vehicle: saline with Tween-80
[4] = dose: 50.0 mg/kg/injection, schedule: Q01DX009 (ip), vehicle: saline with Tween-80
[5] = dose: 100.0 mg/kg/injection, schedule: Q01DX009 (ip), vehicle: saline with Tween-80
[6] = dose: 10.0 mg/kg/injection, schedule: Q01DX009 (ip), vehicle: saline
[7] = dose: 200.0 mg/kg/injection, schedule: Q01DX009 (ip), vehicle: saline with Tween-80
[8] = dose: 100.0 mg/kg/injection, schedule: Q01DX009 (ip), vehicle: saline
[9] = dose: 200.0 mg/kg/injection, schedule: Q01DX009 (ip), vehicle: saline

For `COc1cccc2c1C(=O)c1c(O)c3c(c(O)c1C2=O)CC(O)(C(C)=O)CC3OC1CC(N)C(O)C(C)O1` (stereo unspecified), the T/C (dose: 2.5 mg/kg/injection, schedule: Q01DX007 (ip), vehicle: water) was 154 % of control, the T/C (dose: 2.5 mg/kg/injection, schedule: Q01DX009 (ip), vehicle: water) was 163 % of control and the T/C (dose: 5.0 mg/kg/injection, schedule: Q01DX007 (ip), vehicle: water) was 154 % of control. The T/C (dose: 5.0 mg/kg/injection, schedule: Q01DX009 (ip), vehicle: water) was 190 % of control, the T/C (dose: 5.8 mg/kg/injection, schedule: Q01DX009 (ip), vehicle: saline) was 258 % of control and the T/C (dose: 10.0 mg/kg/injection, schedule: Q01DX007 (ip), vehicle: water) was 163 % of control. For the same molecule, the T/C (dose: 10.0 mg/kg/injection, schedule: Q01DX009 (ip), vehicle: water) was 218 % of control, the T/C (dose: 11.7 mg/kg/injection, schedule: Q01DX009 (ip), vehicle: saline) was 122 % of control and 267 % of control and the T/C (dose: 20.0 mg/kg/injection, schedule: Q01DX007 (ip), vehicle: water) was 339 % of control. For the same molecule, the T/C (dose: 20.0 mg/kg/injection, schedule: Q01DX009 (ip), vehicle: water) was 231 % of control, the T/C (dose: 23.4 mg/kg/injection, schedule: Q01DX009 (ip), vehicle: saline) was 116 % of control and 267 % of control and the T/C (dose: 23.4 mg/kg/injection, schedule: Q04DX003 (ip), vehicle: saline) was 212 % of control. For the same molecule, the T/C (dose: 46.8 mg/kg/injection, schedule: Q04DX003 (ip), vehicle: saline) was 275 % of control and the T/C (dose: 93.6 mg/kg/injection, schedule: Q04DX003 (ip), vehicle: saline) was 275 % of control.

For `Clc1ccc(/C=C2\c3cc(Cl)ccc3-c3c(Cl)cc(Cl)cc32)cc1`, the T/C [1] was 90 % of control.

`CC(C)(C)NC/C(=C\c1ccccc1)C(=O)c1ccccc1` was tested, and the T/C (dose: 6.25 mg/kg/injection, schedule: Q04DX003 (ip), vehicle: saline with Tween-80) was 100 % of control, the T/C (dose: 12.5 mg/kg/injection, schedule: Q01DX009 (ip), vehicle: Klucel (hydroxypropylcellulose) (HPC)) was 96 % of control and the T/C (dose: 12.5 mg/kg/injection, schedule: Q04DX003 (ip), vehicle: saline with Tween-80) was 98 % of control. The T/C (dose: 25.0 mg/kg/injection, schedule: Q01DX009 (ip), vehicle: Klucel (hydroxypropylcellulose) (HPC)) was 96 % of control and the T/C (dose: 25.0 mg/kg/injection, schedule: Q04DX003 (ip), vehicle: saline with Tween-80) was 97 % of control and 102 % of control.

In the case of `C/C(=N\NC(N)=O)c1cccc(/C(C)=N/NC(N)=O)n1`, the T/C [1] is reported as 91 % of control, the T/C [2] is reported as 96 % of control and the T/C [3] is reported as 86 % of control. The T/C [4] was 88 % of control and the T/C [5] was 86 % of control.

With `C=C(C)C12OC3(c4ccccc4)OC1C1C4OC4(CO)C(O)C4(O)C(=O)C(C)=CC4C1(O3)C(C)C2OC(=O)/C=C/C=C/c1ccccc1` (stereo unspecified) the T/C (dose: 6.3 micrograms/kg/injection, schedule: Q01DX009 (ip), vehicle: saline with Tween-80) was 107 % of control, the T/C (dose: 12.5 micrograms/kg/injection, schedule: Q01DX009 (ip), vehicle: saline with Tween-80) was 96 % of control and the T/C (dose: 25.0 micrograms/kg/injection, schedule: Q01DX009 (ip), vehicle: alcohol) was 90 % of control. The T/C (dose: 25.0 micrograms/kg/injection, schedule: Q01DX009 (ip), vehicle: saline with Tween-80) was 96 % of control, the T/C (dose: 50.0 micrograms/kg/injection, schedule: Q01DX009 (ip), vehicle: alcohol) was 91 % of control and the T/C (dose: 50.0 micrograms/kg/injection, schedule: Q01DX009 (ip), vehicle: saline with Tween-80) was 96 % of control. The T/C (dose: 100.0 micrograms/kg/injection, schedule: Q01DX009 (ip), vehicle: alcohol) was 88 % of control and the T/C (dose: 100.0 micrograms/kg/injection, schedule: Q01DX009 (ip), vehicle: saline with Tween-80) was 96 % of control.

With `COc1ccc2nc3ccccc3c(NCCNCCO)c2c1` the T/C [6] was 123 % of control.

In the case of `Cc1ccccc1SSc1ccccc1C`, the T/C [2] is reported as 105 % of control, the T/C [3] is reported as 104 % of control and the T/C [4] is reported as 98 % of control. For the same molecule, the T/C [5] was 103 % of control and the T/C [7] was 98 % of control.

For `N=[N+]=CC(=O)CCC(NC(=O)C(CCC(=O)C=[N+]=N)NC(=O)CCC(N)C(=O)O)C(=O)O` (stereo unspecified), the T/C (dose: 0.01 mg/kg/injection, schedule: Q01DX009 (ip), vehicle: other) was 96 % of control and 100 % of control and 106 % of control, the T/C (dose: 0.05 mg/kg/injection, schedule: Q01DX009 (ip), vehicle: saline) was 100 % of control and the T/C (dose: 0.1 mg/kg/injection, schedule: Q01DX009 (ip), vehicle: saline) was 117 % of control. The T/C (dose: 0.1 mg/kg/injection, schedule: Q01DX009 (ip), vehicle: suspension in saline) was 90 % of control, the T/C (dose: 0.2 mg/kg/injection, schedule: Q01DX009 (ip), vehicle: Klucel (hydroxypropylcellulose) (HPC)) was 90 % of control and the T/C (dose: 0.2 mg/kg/injection, schedule: Q01DX009 (ip), vehicle: suspension in saline) was 103 % of control. The T/C (dose: 0.4 mg/kg/injection, schedule: Q01DX009 (ip), vehicle: Klucel (hydroxypropylcellulose) (HPC)) was 92 % of control, the T/C (dose: 0.4 mg/kg/injection, schedule: Q01DX009 (ip), vehicle: suspension in saline) was 101 % of control and the T/C (dose: 0.5 mg/kg/injection, schedule: Q01DX009 (ip), vehicle: other) was 87 % of control. For the same molecule, the T/C (dose: 0.8 mg/kg/injection, schedule: Q01DX009 (ip), vehicle: Klucel (hydroxypropylcellulose) (HPC)) was 100 % of control, the T/C (dose: 0.8 mg/kg/injection, schedule: Q01DX009 (ip), vehicle: suspension in saline) was 100 % of control and the T/C (dose: 1.6 mg/kg/injection, schedule: Q01DX009 (ip), vehicle: Klucel (hydroxypropylcellulose) (HPC)) was 100 % of control. For the same molecule, the T/C (dose: 1.6 mg/kg/injection, schedule: Q01DX009 (ip), vehicle: suspension in saline) was 105 % of control, the T/C (dose: 2.5 mg/kg/injection, schedule: Q04DX003 (ip), vehicle: water) was 105 % of control and the T/C (dose: 5.0 mg/kg/injection, schedule: Q04DX003 (ip), vehicle: water) was 105 % of control. For the same molecule, the T/C (dose: 10.0 mg/kg/injection, schedule: Q04DX003 (ip), vehicle: other) was 122 % of control, the T/C (dose: 10.0 mg/kg/injection, schedule: Q04DX003 (ip), vehicle: water) was 107 % of control and the T/C (dose: 5.0 micrograms/kg/injection, schedule: Q01DX009 (ip), vehicle: water) was 123 % of control. The T/C (dose: 10.0 micrograms/kg/injection, schedule: Q01DX009 (ip), vehicle: water) was 94 % of control, the T/C (dose: 50.0 micrograms/kg/injection, schedule: Q01DX009 (ip), vehicle: water) was 115 % of control and the T/C (dose: 100.0 micrograms/kg/injection, schedule: Q01DX009 (ip), vehicle: water) was 89 % of control.

`CCC(CC)c1ccccn1` was tested, and the T/C (dose: 100.0 mg/kg/injection, schedule: Q01DX009 (ip), vehicle: carboxymethylcellulose (CMC)) was 101 % of control and the T/C (dose: 200.0 mg/kg/injection, schedule: Q01DX009 (ip), vehicle: carboxymethylcellulose (CMC)) was 95 % of control.

With `Clc1ccccc1C=Nc1ccc2c(c1)Cc1ccccc1-2` the T/C (dose: 100.0 mg/kg/injection, schedule: Q01DX009 (ip), vehicle: Klucel (hydroxypropylcellulose) (HPC)) was 96 % of control, the T/C (dose: 200.0 mg/kg/injection, schedule: Q01DX009 (ip), vehicle: Klucel (hydroxypropylcellulose) (HPC)) was 96 % of control and the T/C (dose: 400.0 mg/kg/injection, schedule: Q01DX009 (ip), vehicle: Klucel (hydroxypropylcellulose) (HPC)) was 87 % of control.

With `O=C(Nc1ccc(F)cc1)Nc1ccc(Cl)cc1` the T/C [5] was 89 % of control and the T/C [7] was 89 % of control.

`CNCCOc1ccccc1` was tested, and the T/C [3] was 110 % of control, the T/C [4] was 101 % of control and the T/C [5] was 101 % of control.

In the case of `CC(C)NCC(=O)c1ccc(O)c(O)c1`, the T/C (dose: 5.0 mg/kg/injection, schedule: Q01DX009 (ip), vehicle: saline) is reported as 115 % of control, the T/C [6] is reported as 114 % of control and the T/C (dose: 20.0 mg/kg/injection, schedule: Q01DX009 (ip), vehicle: saline) is reported as 116 % of control. The T/C (dose: 40.0 mg/kg/injection, schedule: Q01DX009 (ip), vehicle: saline) was 110 % of control, the T/C [8] was 113 % of control and the T/C (dose: 100.0 mg/kg/injection, schedule: Q04DX003 (ip), vehicle: saline) was 108 % of control. The T/C [9] was 106 % of control, the T/C (dose: 200.0 mg/kg/injection, schedule: Q04DX003 (ip), vehicle: saline) was 106 % of control and the T/C (dose: 400.0 mg/kg/injection, schedule: Q04DX003 (ip), vehicle: saline) was 97 % of control.

`NC1CONC1=O` (stereo unspecified) was tested, and the T/C (dose: 6.25 mg/kg/injection, schedule: Q01DX009 (ip), vehicle: saline) was 109 % of control, the T/C (dose: 12.5 mg/kg/injection, schedule: Q01DX009 (ip), vehicle: saline) was 88 % of control and the T/C (dose: 25.0 mg/kg/injection, schedule: Q01DX009 (ip), vehicle: saline) was 109 % of control. For the same molecule, the T/C (dose: 50.0 mg/kg/injection, schedule: Q01DX009 (ip), vehicle: saline) was 102 % of control, the T/C [8] was 105 % of control and the T/C [9] was 100 % of control. The T/C (dose: 400.0 mg/kg/injection, schedule: Q01DX009 (ip), vehicle: saline) was 91 % of control.
